In publication PMC7413254 (Nature Communications, 2020):
Read-outs that look alike come from different tables or passages of the source.

How the values were obtained:
PfCRT^Ecu1110 [1] = molecular target: T1, PfCRT^Ecu1110 (Plasmodium falciparum, UniProt Q9N623, A220S/I356L/K76T/N326D); assay: [3H]CQ uptake into Xenopus oocytes, cis-inhibition by unlabelled solute; format: cell-based
How it was run: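 Oocytes expressing PfCRT isoforms, or non-expressing controls, were incubated 1.5 h at 27.5 °C in ND96 buffer pH 5.5 (96 mM NaCl, 2 mM KCl, 1 mM MgCl2, 1.8 mM CaCl2, 10 mM MES, 10 mM Tris-base), measuring uptake from acidic medium into cytosol. Oocytes were washed ice-cold, SDS-lysed and counted by scintillation.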

non-expressing oocytes = format: cell-based, Xenopus laevis; conditions: total [3H]CQ transport; for Uptake of [3H]CQ (% non-expressing oocyte control), trans-stimulation: non-expressing oocytes, normalised to the oocyte type control; for Uptake of [3H]CQ (% PfCRTDd2 control), trans-stimulation, non-expressing oocytes: mean ± SEM, SEM
How it was run: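 Oocytes (ten per treatment, ≥4 independent frogs/days) were preloaded by injecting VF-6 in 25 nL ND96 at pH 5.0, 5.5, 6.0 or 7.0, or Na^+-free choline buffer, then uptake run 1.5 h, 27.5 °C, ND96 pH 5.5 by default. Internal concentrations assumed ~400 nL oocyte volume.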

PfCRT^3D7 = PfCRT^3D7 (Plasmodium falciparum, UniProt Q8IBZ9); assay: cell-based; format: cell-based
How it was run: (§1)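 Transport measured in Xenopus oocytes expressing the transporters, 1.5 h at 27.5 °C in ND96 pH 5.5 unless noted. For trans-stimulation, VF-6 injected in 25 nL ND96 at pH 5.0–7.0 or Na^+-free (choline) buffer; intracellular levels based on ~400 nL oocyte volume. Ten oocytes per treatment, ≥4 experiments.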

PfCRT^Dd2 = PfCRT^Dd2 (Plasmodium falciparum, UniProt Q9N623, A220S/I356T/K76T/M74I/N326S/N75E/Q271E/R371I); assay: cell-based; format: cell-based; conditions: […]; for activity at 45000 µM: [test solute]i = 45 mM (30 mM for some solutes due to solubility)
How it was run: as §1

PfNT1 = molecular target: T2, PfNT1 (Plasmodium falciparum, UniProt Q8IDM6); assay: cell-based; format: cell-based; conditions: for activity at 5000 µM: total [3H]CQ transport
T2 construct: expressed in transfected cells; host or cells: Xenopus laevis oocytes (stage V-VI), cRNA-injected
How it was run: as §1

PfCRT^Ecu1110 [2] = molecular target: T1, PfCRT^Ecu1110; assay: cell-based; format: cell-based; conditions: […]
How it was run: as §1

PfCRT = assay: Influx of VF-6 via PfCRT into the oocyte, solutes tested as potential co-substrates; format: cell-based, Plasmodium falciparum; parameters: key: X: Compounds that have been tested as potential co-substrates but are not required for influx of VF-6 via PfCRT into the oocyte; conditions: X marks the solute
[3] = read-out: [3H]CQ transport (% PfCRTEcu1110 control), cis-inhibition, PfCRTEcu1110, SEM

T1 sequence (Q9N623 whole entry A220S/I356L/K76T/N326D, canonical isoform): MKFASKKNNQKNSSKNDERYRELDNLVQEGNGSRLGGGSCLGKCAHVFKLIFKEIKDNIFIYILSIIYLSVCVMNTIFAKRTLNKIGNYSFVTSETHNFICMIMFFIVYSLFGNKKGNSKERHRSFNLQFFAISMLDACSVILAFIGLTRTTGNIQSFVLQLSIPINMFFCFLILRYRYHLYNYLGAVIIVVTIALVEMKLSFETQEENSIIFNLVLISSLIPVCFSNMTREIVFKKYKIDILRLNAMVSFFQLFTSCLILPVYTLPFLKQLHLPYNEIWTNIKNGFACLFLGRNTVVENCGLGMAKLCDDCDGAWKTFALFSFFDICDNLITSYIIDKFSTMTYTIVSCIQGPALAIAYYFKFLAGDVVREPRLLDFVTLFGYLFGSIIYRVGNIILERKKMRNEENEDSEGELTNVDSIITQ
Chain of PfCRT^3D7 (Q8IBZ9 59-398): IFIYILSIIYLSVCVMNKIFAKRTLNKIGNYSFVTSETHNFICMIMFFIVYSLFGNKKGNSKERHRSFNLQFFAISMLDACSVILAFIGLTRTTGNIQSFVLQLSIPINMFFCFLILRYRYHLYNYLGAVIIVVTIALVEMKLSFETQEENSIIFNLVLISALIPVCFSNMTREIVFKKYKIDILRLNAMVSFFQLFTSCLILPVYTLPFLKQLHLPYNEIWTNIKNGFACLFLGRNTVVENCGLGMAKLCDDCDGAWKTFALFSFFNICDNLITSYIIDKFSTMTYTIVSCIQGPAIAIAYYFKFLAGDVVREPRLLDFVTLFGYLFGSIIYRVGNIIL
Chain of PfCRT^Dd2 (Q9N623 whole entry A220S/I356T/K76T/M74I/N326S/N75E/Q271E/R371I): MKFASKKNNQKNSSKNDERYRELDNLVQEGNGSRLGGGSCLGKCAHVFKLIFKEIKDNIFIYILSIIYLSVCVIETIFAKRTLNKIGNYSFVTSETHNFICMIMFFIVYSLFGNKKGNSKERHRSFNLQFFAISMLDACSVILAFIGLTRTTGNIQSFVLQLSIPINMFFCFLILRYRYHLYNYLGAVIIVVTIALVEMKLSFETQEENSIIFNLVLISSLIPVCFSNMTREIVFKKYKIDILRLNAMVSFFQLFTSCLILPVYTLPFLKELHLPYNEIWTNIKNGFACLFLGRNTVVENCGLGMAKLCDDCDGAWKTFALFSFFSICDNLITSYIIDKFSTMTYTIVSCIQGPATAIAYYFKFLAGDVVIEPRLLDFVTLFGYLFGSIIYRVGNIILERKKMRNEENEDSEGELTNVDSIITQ
T2 sequence (Q8IDM6 whole entry): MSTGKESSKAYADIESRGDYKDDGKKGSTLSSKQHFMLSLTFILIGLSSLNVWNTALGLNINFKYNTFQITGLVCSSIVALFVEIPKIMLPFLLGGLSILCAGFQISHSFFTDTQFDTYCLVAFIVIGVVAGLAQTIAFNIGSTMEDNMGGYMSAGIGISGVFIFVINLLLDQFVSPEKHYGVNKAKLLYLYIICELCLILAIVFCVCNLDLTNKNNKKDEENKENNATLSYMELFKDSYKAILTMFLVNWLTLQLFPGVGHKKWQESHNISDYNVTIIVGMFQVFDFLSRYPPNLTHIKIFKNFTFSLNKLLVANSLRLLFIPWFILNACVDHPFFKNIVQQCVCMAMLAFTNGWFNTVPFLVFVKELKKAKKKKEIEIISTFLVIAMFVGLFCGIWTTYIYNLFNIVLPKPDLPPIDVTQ

## N[C@@H](Cc1c[nH]c2ccccc12)C(=O)O [L-tryptophan]
PfCRT^Ecu1110 [1]; read-out: Uptake of [3H]CQ (% PfCRTEcu1110 control), cis-inhibition
  inhibition at 2000 µM: 101 ± 3.1%
PfCRT^Ecu1110 [1]; [3]
  inhibition at 500 µM: 29 ± 1.3%
  inhibition at 1000 µM: 29 ± 0.3%
  inhibition at 2000 µM: 30 ± 1.4%
non-expressing oocytes; [test solute]i = 5 mM
  Uptake of [3H]CQ (% non-expressing oocyte control), trans-stimulation: 98 ± 2.5 % non-expressing oocyte control
non-expressing oocytes; [test solute]i = 45 mM (30 mM for some solutes due to solubility)
  Uptake of [3H]CQ (% non-expressing oocyte control), trans-stimulation: 99 ± 2.1 % non-expressing oocyte control
non-expressing oocytes; [test solute]i = 5 mM (intracellular)
  Uptake of [3H]CQ (% PfCRTDd2 control), trans-stimulation, non-expressing oocytes: 3.0 ± 0.04 % PfCRTDd2 control
non-expressing oocytes; [test solute]i = 45 mM (intracellular; 30 mM for some solutes due to solubility)
  Uptake of [3H]CQ (% PfCRTDd2 control), trans-stimulation, non-expressing oocytes: 3.2 ± 0.01 % PfCRTDd2 control
PfCRT^3D7; PfCRT3D7 oocytes, [test solute]i = 5 mM, total [3H]CQ transport, normalised to the oocyte type control, read-out: Uptake of [3H]CQ (% PfCRT3D7 control), trans-stimulation
  activity at 5000 µM: 100 ± 3.5%
PfCRT^3D7; SEM
  [3H]CQ transport (% PfCRT3D7 control), trans-stimulation, PfCRT3D7: 0.3 ± 0.02 % PfCRT3D7 control
PfCRT^3D7; [test solute]i = 5 mM (intracellular), PfCRT3D7 oocytes, normalised to oocyte type control, read-out: PfCRT-mediated [3H]CQ transport, trans-stimulation (% PfCRT3D7 control)
  activity at 5000 µM: 98 ± 4.7%
PfCRT^3D7; SEM, read-out: Uptake of [3H]CQ (% PfCRTDd2 control), trans-stimulation, PfCRT3D7
  activity at 45000 µM: 3.4 ± 0.06%
PfCRT^3D7; read-out: PfCRT-mediated [3H]CQ transport, trans-stimulation (% PfCRT3D7 control)
  activity at 45000 µM: 99 ± 3.4%
PfCRT^3D7; read-out: Uptake of [3H]CQ (% PfCRT3D7 control), trans-stimulation
  activity at 45000 µM: 101 ± 2.5%
PfCRT^3D7; total [3H]CQ transport, [test solute]i = 5 mM (intracellular), mean ± SEM, SEM, read-out: Uptake of [3H]CQ (% PfCRTDd2 control), trans-stimulation, PfCRT3D7
  activity at 5000 µM: 3.3 ± 0.06%
PfCRT^Dd2; pH 5.5, read-out: PfCRT-mediated [3H]CQ transport, trans-stimulation (% PfCRTDd2 control), [test solute]i = 5 mM (intracellular), PfCRTDd2 oocytes, normalised to oocyte type control
  activity at 5000 µM: 98 ± 1.6%
PfCRT^Dd2; pH 5.5, read-out: Uptake of [3H]CQ (% PfCRTDd2 control), trans-stimulation, PfCRTDd2, total [3H]CQ transport, [test solute]i = 5 mM (intracellular), mean ± SEM, SEM
  activity at 5000 µM: 100 ± 2.2%
PfCRT^Dd2; pH 5.5, read-out: Uptake of [3H]CQ (% PfCRTDd2 control), trans-stimulation, PfCRTDd2 oocytes, [test solute]i = 5 mM, total [3H]CQ transport, normalised to the oocyte type control
  activity at 5000 µM: 100 ± 2.2%
PfCRT^Dd2; pH 5.5, read-out: Uptake of [3H]CQ (% PfCRTDd2 control), trans-stimulation, PfCRTDd2 oocytes, total [3H]CQ transport, normalised to the oocyte type control
  activity at 45000 µM: 101 ± 2.4%
PfCRT^Dd2; pH 5.5, read-out: [3H]CQ transport (% PfCRTDd2 control), trans-stimulation, PfCRTDd2, trans-stimulation, [test solute]i = 5 mM (injected), PfCRT-mediated component (background subtracted), mean ± SEM, SEM
  activity at 5000 µM: 98 ± 1.6%
PfCRT^Dd2; pH 5.5, read-out: [3H]CQ transport (% PfCRTDd2 control), trans-stimulation, PfCRTDd2, trans-stimulation, PfCRT-mediated component (background subtracted), mean ± SEM, SEM
  activity at 45000 µM: 99 ± 1.9%
PfNT1; PfNT1 oocytes, [test solute]i = 5 mM, normalised to the oocyte type control, read-out: Uptake of [3H]CQ (% PfNT1 control), trans-stimulation
  activity at 5000 µM: 101 ± 3.9%
PfNT1; SEM, read-out: Uptake of [3H]CQ (% PfCRTDd2 control), trans-stimulation, PfNT1
  activity at 45000 µM: 2.1 ± 0.03%
PfNT1; read-out: Uptake of [3H]CQ (% PfNT1 control), trans-stimulation
  activity at 45000 µM: 98 ± 3.2%
PfNT1; [test solute]i = 5 mM (intracellular), mean ± SEM, SEM, read-out: Uptake of [3H]CQ (% PfCRTDd2 control), trans-stimulation, PfNT1
  activity at 5000 µM: 2.7 ± 0.05%
PfCRT^Ecu1110 [2]; pH 5.5, read-out: PfCRT-mediated [3H]CQ transport, trans-stimulation (% PfCRTEcu1110 control), [test solute]i = 5 mM (intracellular), PfCRTEcu1110 oocytes, normalised to oocyte type control
  activity at 5000 µM: 97 ± 2.2%
PfCRT^Ecu1110 [2]; pH 5.5, read-out: Uptake of [3H]CQ (% PfCRTEcu1110 control), trans-stimulation, PfCRTEcu1110 oocytes, [test solute]i = 5 mM, total [3H]CQ transport, normalised to the oocyte type control
  activity at 5000 µM: 99 ± 3.1%
PfCRT^Ecu1110 [2]; pH 5.5, read-out: Uptake of [3H]CQ (% PfCRTEcu1110 control), trans-stimulation, PfCRTEcu1110 oocytes, [test solute]i = 45 mM (30 mM for some solutes due to solubility), total [3H]CQ transport, normalised to the oocyte type control
  activity at 45000 µM: 99 ± 3.5%
PfCRT^Ecu1110 [2]; read-out: Uptake of [3H]CQ (% PfCRTDd2 control), trans-stimulation, PfCRTEcu1110, total [3H]CQ transport, [test solute]i = 5 mM (intracellular), mean ± SEM, SEM
  activity at 5000 µM: 35 ± 1.9%
PfCRT^Ecu1110 [2]; read-out: Uptake of [3H]CQ (% PfCRTDd2 control), trans-stimulation, PfCRTEcu1110, total [3H]CQ transport, [test solute]i = 45 mM (intracellular; 30 mM for some solutes due to solubility), mean ± SEM, SEM
  activity at 45000 µM: 35 ± 2.1%
PfCRT
  Compounds that have been tested as potential co-substrates but are not required for influx of VF-6 via PfCRT into the oocyte: X
